Experimental data published in PMC8883573, “New Insights Into the Function of Flavohemoglobin in Mycobacterium tuberculosis: Role as a NADPH-Dependent Disulfide Reductase and D-Lactate-Dependent Mycothione Reductase” (Frontiers in Cellular and Infection Microbiology, 2022).

Legend:
trxB = trxB (Mycobacterium tuberculosis, UniProt P9WHH1); test: DTNB reduction, absorbance at […] nm; assay type: biochemical; details: 5 mM DTNB, 250 µM NADPH, 100 mM potassium phosphate pH 7.0, 2 mM EDTA, 25 °C
[1] = tested on: O=C(O)c1cc(SSc2ccc([N+](=O)[O-])c(C(=O)O)c2)ccc1[N+](=O)[O-]; test: purified protein; assay type: biochemical, Mycolicibacterium smegmatis; details: pH 7.0

trxB, sequence (P9WHH1 2-335): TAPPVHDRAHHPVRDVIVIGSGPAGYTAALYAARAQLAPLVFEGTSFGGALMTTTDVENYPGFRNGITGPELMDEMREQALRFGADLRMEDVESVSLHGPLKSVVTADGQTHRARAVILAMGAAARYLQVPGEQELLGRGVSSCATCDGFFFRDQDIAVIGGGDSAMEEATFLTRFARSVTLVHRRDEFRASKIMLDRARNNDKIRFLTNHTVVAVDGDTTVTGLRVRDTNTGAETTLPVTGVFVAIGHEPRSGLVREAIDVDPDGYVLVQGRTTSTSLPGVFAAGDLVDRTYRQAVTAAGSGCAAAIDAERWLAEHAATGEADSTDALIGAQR

NC(=O)C1=CN([C@@H]2O[C@H](COP(=O)(O)OP(=O)(O)OC[C@H]3O[C@@H](n4cnc5c(N)ncnc54)[C@H](OP(=O)(O)O)[C@@H]3O)[C@@H](O)[C@H]2O)C=CC1 [NADPH]
DTNB reduction, absorbance at 412 nm (trxB; electron donor for DTNB reduction): NADPH-dependent reduction of DTNB by MtbFHb, MsFHbII, and trxB

MsFHbII (Mycolicibacterium smegmatis MC2 155)
Km [1]: 93.7 ± 7.6 µM

O=C(O)c1cc(SSc2ccc([N+](=O)[O-])c(C(=O)O)c2)ccc1[N+](=O)[O-] [DTNB, 5,5’-dithiobis-(2-nitrobenzoic acid)]
DTNB reduction, absorbance at 412 nm (trxB): NADPH-dependent reduction of DTNB by MtbFHb, MsFHbII, and trxB
